Patent US6927221B2, “Tricyclic fused heterocyclic compound, process for preparing it and medicament comprising it” (Eisai Co., Ltd., priority 1999, dated 2005)
Where a name gives a salt, the structure may show the parent alone. Read-outs that look alike come from different tables or passages of the source.

How the values were obtained:
human CRFR1 = target: T1, human CRFR1 (Homo sapiens, UniProt P34998); test: CRFR binding experiment (125I-sauvagine, SPA); details: membrane fraction of cell expressing human CRFR1, 40 pM 125I-sauvagine, room temperature, two hours; read-out: CRF1 receptor binding ability IC50
T1 construct: The full length gene of CRFR^1 was obtained by a PCT method using human brain (QuickClone™ Clontech) as cDNA library; expressed in transfected cells; host or cells: Hek 283 cell (so in the source)
T1 sequence (P34998 24-415): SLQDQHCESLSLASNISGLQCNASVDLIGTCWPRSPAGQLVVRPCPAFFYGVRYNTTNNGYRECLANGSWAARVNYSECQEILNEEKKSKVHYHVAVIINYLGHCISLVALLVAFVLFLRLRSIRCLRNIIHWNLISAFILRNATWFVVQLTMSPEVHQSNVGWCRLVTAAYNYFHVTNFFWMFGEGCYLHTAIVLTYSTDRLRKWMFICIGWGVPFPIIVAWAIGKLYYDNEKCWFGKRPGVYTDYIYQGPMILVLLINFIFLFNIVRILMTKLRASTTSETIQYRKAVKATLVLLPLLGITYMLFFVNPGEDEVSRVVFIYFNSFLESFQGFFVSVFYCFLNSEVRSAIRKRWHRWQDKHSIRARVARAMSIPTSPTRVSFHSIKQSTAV
Description: • (1) Preparation of CRFR expressing cell: As an experiment material for the CRFR binding experiment, a membrane fraction of a cell which expressed highly human CRFR1. CRFR expressing cell was prepared as follows. The full length gene of CRFR^1 was obtained by a PCT method using human brain (QuickClone™ Clontech) as cDNA library. The resulting DNA fragment was inserted into a cloning vector to confirm the base sequence. A cDNA having the correct base sequence was ligated to an expression vector (pcDNA3.1™, Invitrogen). A gene was inserted into […] cell and grown in a cell culturing solution containing G418 (1 mg/ml) to obtain a resistance cell, into which a CRFR^1 expression vector was cloned by a limitation diluting method. A clone having the high binding ability of membrane and sauvagine per unit protein was finally selected from cloned cells by a binding experiment shown by the method shown below, which was used for an experiment. • (2) Preparation of a membrane fraction: G418 resistant cells into which a gene for CRFR^1 was introduced were collected, and cell rupture was performed by an ultrasound generator with a sonicate buffer (D-PBS-10 mM MgCl2, 2 mM EGTA). A suspension after ultrasound rupture was centrifuged (46,000×g, 10 minutes), the sediment thereof was further resuspended with a sonicate buffer, and the same procedures were related. Finally, the sediment was suspended in a binding buffer (D-PBS-10 mM MgCl2, 2 mM EGTA, 1.5% BSA, 0.15 mM bacitracin, 1× protease inhibitor cocktail (COMPLETE™, Boehringer), to adjust the protein concentration at 1.6 mg/ml, which was used as a membrane fraction. • (3) Binding experiment: Binding experiment with sauvagine was performed using a 96-well plate and SP™ (Amersham pharmacia) An experiment was according to the specification of SPA beads. […] of a membrane fraction protein, 0.5 mg of beads and 40 pM ^125I-sauvaging (Amersham pharmacia) were allowed to stand at room temperature for two hours in the presence a test compound, centrifuged (1,000×g, 5 minutes), and then the radioactivity of each well was measured with TopCount™ (Packard). • (4) Calculation of the binding ability: The radioactivity as the non-specific binding when 1,000-fold excessive amount of non-radioactive sauvagine was added was substacted from each value, the radioactivity where no test material is added is regarded as 100% (control), and each value is shown by % (% of control). The concentration showing 50% in % (% of control) was obtained from a graph where the concentration test material is plotted on an abscissa axis and % (% of control) is plotted on a coordinate axis and IC50 value was calculated (Table 1)

AtT-20 cell = test: Experiment for measuring adenylate cyclase activity using AtT-20 cell (CRF-induced cAMP); assay type: cell-based, mouse; details: 1 mM IBMX, intracellular cAMP by ELISA, read-out: adenylate cyclase ability IC50
Description: Experiment for Measuring Adenyrate Cyclase the Activity Using AtT-20 Cell
• (1) Test procedures: AtT-20 cell is a cell strain derived from mouse pytuitari gland tumor, it is known that the intracellular adenyrate cyclase system is activated in response to corticotrophin release hormone (CRF), to produce cyclic AMP (cAMP), releasing adrenocortical hormone (ACTH) (Biochem. Piophys. Res. Com. 106. 1364-1371, 1982). In this experiment, the cell 1×10^5) suspended in D-MEM medium (0.1% FPS), seeded on a 96-well plate, a phosphodiesterase inhibitor (IBMX, Calbiochem) was added to the final concentration of 1 mM, which was cultured at 37° C. for 30 minutes. A diluted test compound solution and CRF (30 nM) were added, which was further cultured at 37° C. for 10 minutes, cells were collected by centrifugation (500×g, 5 minutes), cells were lysed with a lysis buffer (Amersham Pharmacia), and an amount of intracellular cAMP produced was quantitated using the ELISA method. For ELISA, cAMP EIA system (BIOTRAK™ Amersham Pharmacia) was used. • (2) Calculation of adenyrate cyclase activity inhibitory ability: Treatment of the resulting data was carried out as follows. An amount of cAMP produced by a cell to which 30 nM CRF was added is regarded as 100% (control) and a value of each sample is expressed as % (% of control). The concentration showing 50% in % (% of control) was obtained from a graph where the concentration of a test material is plotted on an abscissa axis and % (% of control) is plotted on a coordinate and IC50 value was calculated (Table 2).

SMILES | IC50 (human CRFR1) | IC50 (AtT-20 cell; Mus musculus, AtT20, 30 nM CRF) | IC50 (AtT-20 cell; 30 nM CRF)
CCC(CC)N1CCc2c(C)nc3c(-c4c(C)cc(C)cc4C)c(C)nn3c21 [Example 1, 8-(1-Ethylpropyl)-3-mesityl-2,5-dimethyl-7,8-dihydro-6H-pyrazolo[1,5-a]pyrrolo[3,2-e]pyrimidine hydrochloride] | 100 nM | 900 nM | –
CCCCN1CCc2c(C)nc3c(-c4c(C)cc(C)cc4C)c(C)nn3c21 [Example 2, 8-Butyl-3-mesityl-2,5-dimethyl-7,8-dihydro-pyrazolo[1,5-a]pyrrolo[3,2-e]pyrimidine hydrochloride] | 500 nM | – | –
CCCC(CCC)N1CCc2c(C)nc3c(-c4cnc(N(C)C)cc4C)c(C)nn3c21 [Example 3, N-5-[2,5-Dimethyl-8-(1-propylbutyl)-7,8-dihydro-6H-pyrazolo[1,5-a]pyrrolo[3,2-e]pyrimidin-3-yl]-4-methyl-2-pyridyl-N,N-dimethylamine hydrochloride] | 600 nM | – | –
CCCC(CCC)N1CCc2c(C)nc3c(-c4c(C)cc(C)cc4C)c(C)nn3c21 [Example 6, 3-Mesityl-2,5-dimethyl-8-(1-propylbutyl)-7,8-dihydro-6H-pyrazolo[1,5-a]pyrrolo[3,2]-pyrimidine hydrochloride] | 1000 nM | – | –
CCC(CC)N1CCCc2c(C)nc3c(-c4c(C)cc(C)cc4C)c(C)nn3c21 [Example 12, 9-(1-Ethylpropyl)-3-mesityl-2,5-dimethyl-6,7,8,9-tetrahydropyrazolo[1,5-a]pyrido[3,2-e]pyrimidine] | 1500 nM | – | –
CCC(CC)N1c2c(c(C)nc3c(-c4c(C)cc(C)cc4C)c(C)nn23)CC1C (stereo not shown) [Example 13, 8-(1-Ethylpropyl)-mesityl-2,5,7-trimethyl-7,8-dihydro-6H-pyrazolo[1,5-a]pyrrolo[3,2-e]pyrimidine] | 2500 nM | – | 1500 nM
CCc1nn2c3c(c(C)nc2c1-c1c(C)cc(C)cc1C)CCN3C(CC)CC [Example 23, 2-Ethyl-8-(1-ethylpropyl)-3-mesityl-5-methyl-7,8-dihydro-6H-pyrazolo[1,5-a]pyrrolo[3,2-e]pyrimidine] | 1500 nM | – | –
CCC(CC)N1CCc2c(C)nc3c(-c4ccc(Cl)cc4Cl)c(C)nn3c21 [Example 33, 3-(2,4-Dichlorophenyl)-8-(1 ethylpropyl)-2,5-dimethyl-7,8-dihydro-6H-pyrazolo[1,5-a]pyrrolo[3,2-e]pyrimidine hydrochloride] | 1000 nM | – | –
Cc1cc(C)c(-c2c(C)nn3c4c(c(C)nc23)CCN4CC2CC2)c(C)c1 [Example 38, 8-(Cyclopropylmethyl)-3-mesityl-2,5-dimethyl-7,8-dihydro-6H-pyrazolo[1,5-a]pyrrolo[3,2-e]pyrimidine hydrochloride] | 3000 nM | – | –
COCCN1c2c(c(C)nc3c(-c4c(C)cc(C)cc4C)c(C)nn23)CC1C (stereo not shown) [Example 44, 3-Mesityl-8-(2-methoxyethyl)-2,5,7-trimethyl-7,5-dihydro-6H-pyrazolo[1,5-a]pyrrolo[3,2-e]pyrimidine hydrochloride] | 400 nM | – | –
Cc1cc(C)c(-c2c(C)nn3c4c(c(C)nc23)CCN4C2CCCCCC2)c(C)c1 [Example 45, 8-Cycloheptyl-3-mesityl-2,5-dimethyl-7,8-dihydro)-6H-pyrazolo[1,5-a]pyrrolo[3,2-e]pyrimidine hydrochloride] | 1500 nM | – | –
CCC(CC)n1ccc2c(C)nc3c(-c4c(C)cc(C)cc4C)c(C)nn3c21 [Example 67, 8-(1-Ethylpropyl)-3-mesityl-2,5-dimethyl-8H-pyrazolo[1,5-a]pyrrolo[3,2-e]pyrimidine] | 200 nM | 2000 nM | –
CCCC(=O)N1CCc2c(C)nc3c(-c4c(C)cc(C)cc4C)c(C)nn3c21 [Example 74, 1-(3-Mesityl-2,5-dimethyl-7,8-dihydro-6H-pyrazolo[1,5-a]pyrrolo[3,2-e]pyrimidin-8-yl)-1-butanone] | 1400 nM | – | –
